From patent US5910494A, “Hypolipidemic 1,4-benzothiazepine-1,1-dioxides” (Glaxo Wellcome Inc., priority 1997, dated 1999)

Tested on: ileal bile acid active uptake transport system
Test: In vivo inhibition of bile acid uptake: fecal excretion of 75SeHCAT (% inhibition of 75SeHCAT)
Design: species or system Male Spraque-Dawley rats
Details: oral gavage, twice daily for two days, rat, feces over 24 hr
Description: In vivo inhibition of bile acid uptake
Inhibiting intestinal bile acid absorption with bile acid sequestrants or surgically with partial ileal bypass surgery is an effective way to decrease plasma LDL cholesterol concentration. Another approach to decreasing bile acid absorption is inhibiting the ileal bile acid active uptake transport system. It has been shown that this inhibition, as measured by the fecal excretion of bile acids results in hypocholesterolemic activity. (1) Lewis, M. C.; Brieaddy, L. E.; and Root, C. Effects of 2164U90 on Ileal Bile Acid Absorption and Serum Cholesterol in Rats and Mice. J. Lipid. Research., 1995, 36, 1098-1105.
Fecal Excretion of Bile Acids
Male Spraque-Dawley rats weighing 220-260 g were housed in individual cages and fed normal chow. The rats were divided into 6 treatment groups of 10 to 12 rats per group. The rats were dosed by oral gavage(1 mL/100 g body weight) with test compounds as a suspension in 0.5% methylcellulose at 9:00 am and 3:30 pm for two days. The control group received 0.5% methylcellulose. Two hours after the morning dose on day two, the rats were given a trace amount(1.3 nmoles) of 23, 25-^75 Se-homocholic acid taurine(^75 SeHCAT) in 1.0 mL saline orally. ^75 SeHCAT, a synthetic gamma emitting bile acid analog which is absorbed by the ileal bile acid uptake system similar to taurocholic acid, has been used clinically as a measure of ileal bile acid absorptionl,^1,2. Feces were collected over the 24 hr following ^75 SeHCAT administration. Fecal content of ^75 SeHCAT was determined using a Packard Auto-Gamma 5000 Series gamma-counter. Representative data are tabulated in Table 1 as the % inhibition of ^75 SeHCAT.

Structure (SMILES) | % Inhibition of ^75 SeHCAT (0.1 mg/kg) | % Inhibition of ^75 SeHCAT (0.3 mg/kg) | % Inhibition of ^75 SeHCAT (1.0 mg/kg)
CCCC[C@]1(CC)CS(=O)(=O)c2cc(OC)ccc2[C@@H](c2ccccc2)N1 (relative stereo) [Example 10, (+-)-Trans-3-butyl-3-ethyl-2,3,4,5-tetrahydro-8-methoxy-5-phenyl-1,4-benzothiazepine 1,1-dioxide] | 33% | 53% | –
CCCC[C@]1(CC)CS(=O)(=O)c2cc(O)ccc2[C@@H](c2ccccc2)N1 (relative stereo) [Example 11, (+-)-trans-3-butyl-3-ethyl-2,3,4,5-tetrahydro-5-phenyl-1,4-benzothiazepine-8-ol 1,1-dioxide] | 71% | 72% | –
CCCC[C@]1(CC)CS(=O)(=O)c2cc(OC)c(C=O)cc2[C@@H](c2ccccc2)N1 (relative stereo) [Example 14, (+-)-Trans-3-butyl-3-ethyl-2,3,4,5-tetrahydro-8-methoxy-5-phenyl-1,4-benzothiazepine-7-carbaldehyde 1,1-dioxide] | – | 41% | 56%
CCCC[C@]1(CC)CS(=O)(=O)c2cc(O)c(C=O)cc2[C@@H](c2ccccc2)N1 (relative stereo) [Example 16, (+-)-Trans-3-butyl-3-ethyl-2,3,4,5-tetrahydro-8-hydroxy-5-phenyl-1,4-benzothiazepine-7-carbaldehyde 1,1-dioxide] | – | 34% | 44%
CCCC[C@]1(CC)CS(=O)(=O)c2cc(S(=O)(=O)O)ccc2[C@@H](c2ccccc2)N1 (relative stereo) [Example 18, (+-)-Trans-3-butyl-3-ethyl-2,3,4,5-tetrahydro-5-phenyl-1,4-benzothiazepine-8-sulfonic acid 1,1-dioxide] | – | 12% | 39%
CCCC[C@]1(CC)CS(=O)(=O)c2cc(OC)c(COC)cc2[C@@H](c2ccccc2)N1 (relative stereo) [Example 24, (+-)-Trans-3-butyl-3-ethyl-2,3,4,5-tetrahydro-8-methoxy-7-(methoxymethyl)-5-phenyl-1,4-benzothiazepine 1,1-dioxide] | – | 24% | 49%
CCCC[C@]1(CC)CS(=O)(=O)c2cc(OC)c(OC)cc2[C@@H](c2ccccc2)N1OC(C)=O (relative stereo) [Example 45, (+-)-Trans-3-butyl-3-ethyl-5-phenyl-2,3,4,5-tetrahydro-7,8-dimethoxy-1,4-benzothiazepin-4-yl acetate S,S-dioxide] | – | 6% | 26%
CCCC[C@]1(CC)CS(=O)(=O)c2cc(OC)c(OC)cc2[C@@H](c2ccccc2)N1 [Example 1, (3R,5R)-3-butyl-3-ethyl-2,3,4,5-tetrahydro-7,8-dimethoxy-5-phenyl-1-4-benzothiazepine 1,1-dioxide] | 54% | 51% | –
CCCC[C@]1(CC)CS(=O)(=O)c2cc(O)c(O)cc2[C@@H](c2ccccc2)N1 [Example 7, (3R,5R)-3-Butyl-3-ethyl-2,3,4,5-tetrahydro-5-phenyl-1,4-benzothiazepine-7,8-diol 1,1-dioxide] | 72% | 65% | –
CCCC[C@]1(CC)CS(=O)(=O)c2cc(O)c(OC)cc2[C@@H](c2ccccc2)N1 [Example 9, (3R,5R)-3-Butyl-3-ethyl-2,3,4,5-tetrahydro-7-methoxy-5-phenyl-1,4-benzothiazepine-8-ol 1,1-dioxide] | 70% | 80% | –
